Data taken from US6358885B1, “Substituted phenylheterocyclic herbicides” (Mississippi State University, priority 1992, dated 2002).

Columns and labels:
Test in all cases: Test B preemergence/postemergence greenhouse plant response rating 0 to 10
sugar beet = format: in vivo, Beta vulgaris; conditions: for Plant response rating, Sugar beet: 0 to 10 scale
In short: (§1)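 Planted seeds are treated preemergence with compound dissolved in a non-phytotoxic solvent, while postemergence applications go onto plants of two to eighteen cm. Plants stay in the greenhouse twelve to sixteen days and are then rated visually relative to controls.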

corn = format: in vivo, Zea mays; conditions: for Plant response rating, Corn: 0 to 10 scale
In short: as §1

cheatgrass = format: in vivo, Bromus secalinus; conditions: for Plant response rating, Cheatgrass: 0 to 10 scale
In short: as §1

barnyardgrass = format: in vivo, Echinochloa crus-galli; conditions: for Plant response rating, Barnyardgrass: 0 to 10 scale
In short: as §1

morningglory = format: in vivo, Ipomoea hederacea; conditions: for Plant response rating, Morningglory: 0 to 10 scale
In short: as §1

barley = format: in vivo, Hordeum vulgare; conditions: for Plant response rating, Barley: 0 to 10 scale
In short: as §1

rape = format: in vivo, Brassica napus; conditions: for Plant response rating, Rape: 0 to 10 scale
In short: as §1

blackgrass = format: in vivo, Alopecurus myosuroides; conditions: for Plant response rating, Blackgrass: 0 to 10 scale
In short: as §1

sorghum = format: in vivo, Sorghum bicolor; conditions: for Plant response rating, Sorghum: 0 to 10 scale
In short: as §1

rice = format: in vivo, Oryza sativa; conditions: for Plant response rating, Rice: 0 to 10 scale
In short: as §1

velvetleaf = format: in vivo, Abutilon theophrasti; conditions: for Plant response rating, Velvetleaf: 0 to 10 scale
In short: as §1

wild oat = format: in vivo, Avena fatua; conditions: for Plant response rating, Wild oat: 0 to 10 scale
In short: as §1

lambsquarters = format: in vivo, Chenopodium album; conditions: for Plant response rating, Lambsquarter: 0 to 10 scale
In short: as §1

purple nutsedge = format: in vivo, Cyperus rotundus; conditions: for Plant response rating, Nutsedge: 0 to 10 scale
In short: as §1

chickweed = format: in vivo, Stellaria media; conditions: for Plant response rating, Chickweed: 0 to 10 scale
In short: as §1

cotton = format: in vivo, Gossypium hirsutum; conditions: for Plant response rating, Cotton: 0 to 10 scale
In short: as §1

bedstraw = format: in vivo, Galium aparine; conditions: for Plant response rating, Bedstraw: 0 to 10 scale
In short: as §1

soybean = format: in vivo, Glycine max; conditions: for Plant response rating, Soybean: 0 to 10 scale
In short: as §1

giant foxtail = format: in vivo, Setaria faberii; conditions: for Plant response rating, Giant foxtail: 0 to 10 scale
In short: as §1

wheat = format: in vivo, Triticum aestivum; conditions: for Plant response rating, Wheat: 0 to 10 scale
In short: as §1

wild buckwheat = format: in vivo, Polygonum convolvulus; conditions: for Plant response rating, Wild buckwheat: 0 to 10 scale
In short: as §1

cocklebur = format: in vivo, Xanthium pensylvanicum; conditions: for Plant response rating, Cocklebur: 0 to 10 scale
In short: as §1

crabgrass = format: in vivo, Digitaria spp.; conditions: for Plant response rating, Crabgrass: 0 to 10 scale
In short: as §1

CC(C)OC(=O)COc1cc(-c2nn3c(c2Br)CCCC3)c(F)cc1Cl [Compound 64]
3: Plant response rating, Corn (corn; Rate 200 g/ha, POSTEMERGENCE) | Plant response rating, Cheatgrass (cheatgrass; Rate 200 g/ha, POSTEMERGENCE) | Plant response rating, Barley (barley; Rate 200 g/ha, POSTEMERGENCE) | Plant response rating, Blackgrass (blackgrass; Rate 200 g/ha, POSTEMERGENCE) | Plant response rating, Velvetleaf (velvetleaf; PREEMERGENCE, Rate 50 g/ha) | Plant response rating, Wild oat (wild oat; POSTEMERGENCE, Rate 50 g/ha) | Plant response rating, Wild oat (wild oat; Rate 200 g/ha, POSTEMERGENCE) | Plant response rating, Giant foxtail (giant foxtail; POSTEMERGENCE, Rate 50 g/ha) | Plant response rating, Giant foxtail (giant foxtail; Rate 200 g/ha, POSTEMERGENCE) | Plant response rating, Wheat (wheat; POSTEMERGENCE, Rate 50 g/ha) | Plant response rating, Crabgrass (crabgrass; POSTEMERGENCE, Rate 50 g/ha)
1: Plant response rating (0 to 10 scale), Barnyardgrass (barnyardgrass; PREEMERGENCE, Rate 200 g/ha) | Plant response rating, Blackgrass (blackgrass; PREEMERGENCE, Rate 50 g/ha) | Plant response rating (0 to 10 scale), Bedstraw (bedstraw; PREEMERGENCE, Rate 200 g/ha)
8: Plant response rating (0 to 10 scale), Morningglory (morningglory; PREEMERGENCE, Rate 200 g/ha)
5: Plant response rating, Corn (corn; POSTEMERGENCE, Rate 50 g/ha) | Plant response rating, Barnyardgrass (barnyardgrass; POSTEMERGENCE, Rate 50 g/ha) | Plant response rating, Rice (rice; Rate 200 g/ha, POSTEMERGENCE) | Plant response rating, Chickweed (chickweed; Rate 200 g/ha, POSTEMERGENCE) | Plant response rating, Soybean (soybean; Rate 200 g/ha, POSTEMERGENCE) | Plant response rating, Wild buckwheat (wild buckwheat; PREEMERGENCE, Rate 50 g/ha) | Plant response rating, Crabgrass (crabgrass; Rate 200 g/ha, POSTEMERGENCE)
0: Plant response rating, Corn (corn; PREEMERGENCE, Rate 50 g/ha) | Plant response rating (0 to 10 scale), Corn (corn; PREEMERGENCE, Rate 200 g/ha) | Plant response rating, Barnyardgrass (barnyardgrass; PREEMERGENCE, Rate 50 g/ha) | Plant response rating, Morningglory (morningglory; PREEMERGENCE, Rate 50 g/ha) | Plant response rating, Barley (barley; PREEMERGENCE, Rate 50 g/ha) | Plant response rating (0 to 10 scale), Barley (barley; PREEMERGENCE, Rate 200 g/ha) | Plant response rating, Rape (rape; PREEMERGENCE, Rate 50 g/ha) | Plant response rating (0 to 10 scale), Rape (rape; PREEMERGENCE, Rate 200 g/ha) | Plant response rating, Sorghum (sorghum; PREEMERGENCE, Rate 50 g/ha) | Plant response rating (0 to 10 scale), Sorghum (sorghum; PREEMERGENCE, Rate 200 g/ha) | Plant response rating, Rice (rice; PREEMERGENCE, Rate 50 g/ha) | Plant response rating, Wild oat (wild oat; PREEMERGENCE, Rate 50 g/ha) | Plant response rating (0 to 10 scale), Wild oat (wild oat; PREEMERGENCE, Rate 200 g/ha) | Plant response rating, Nutsedge (purple nutsedge; PREEMERGENCE, Rate 50 g/ha) | Plant response rating (0 to 10 scale), Nutsedge (purple nutsedge; PREEMERGENCE, Rate 200 g/ha) | Plant response rating, Chickweed (chickweed; PREEMERGENCE, Rate 50 g/ha) | Plant response rating (0 to 10 scale), Chickweed (chickweed; PREEMERGENCE, Rate 200 g/ha) | Plant response rating, Cotton (cotton; PREEMERGENCE, Rate 50 g/ha) | Plant response rating (0 to 10 scale), Cotton (cotton; PREEMERGENCE, Rate 200 g/ha) | Plant response rating, Bedstraw (bedstraw; PREEMERGENCE, Rate 50 g/ha) | Plant response rating, Soybean (soybean; PREEMERGENCE, Rate 50 g/ha) | Plant response rating (0 to 10 scale), Soybean (soybean; PREEMERGENCE, Rate 200 g/ha) | Plant response rating, Giant foxtail (giant foxtail; PREEMERGENCE, Rate 50 g/ha) | Plant response rating (0 to 10 scale), Giant foxtail (giant foxtail; PREEMERGENCE, Rate 200 g/ha) | Plant response rating, Wheat (wheat; PREEMERGENCE, Rate 50 g/ha) | Plant response rating (0 to 10 scale), Wheat (wheat; PREEMERGENCE, Rate 200 g/ha) | Plant response rating, Cocklebur (cocklebur; PREEMERGENCE, Rate 50 g/ha) | Plant response rating, Crabgrass (crabgrass; PREEMERGENCE, Rate 50 g/ha) | Plant response rating (0 to 10 scale), Crabgrass (crabgrass; PREEMERGENCE, Rate 200 g/ha)
10: Plant response rating, Sugar beet (sugar beet; POSTEMERGENCE, Rate 50 g/ha) | Plant response rating (0 to 10 scale), Sugar beet (sugar beet; PREEMERGENCE, Rate 200 g/ha) | Plant response rating, Sugar beet (sugar beet; Rate 200 g/ha, POSTEMERGENCE) | Plant response rating, Morningglory (morningglory; Rate 200 g/ha, POSTEMERGENCE) | Plant response rating, Rape (rape; Rate 200 g/ha, POSTEMERGENCE) | Plant response rating, Velvetleaf (velvetleaf; POSTEMERGENCE, Rate 50 g/ha) | Plant response rating, Velvetleaf (velvetleaf; Rate 200 g/ha, POSTEMERGENCE) | Plant response rating, Lambsquarter (lambsquarters; PREEMERGENCE, Rate 50 g/ha) | Plant response rating (0 to 10 scale), Lambsquarter (lambsquarters; PREEMERGENCE, Rate 200 g/ha) | Plant response rating, Lambsquarter (lambsquarters; Rate 200 g/ha, POSTEMERGENCE) | Plant response rating, Cotton (cotton; POSTEMERGENCE, Rate 50 g/ha) | Plant response rating, Cotton (cotton; Rate 200 g/ha, POSTEMERGENCE) | Plant response rating, Bedstraw (bedstraw; POSTEMERGENCE, Rate 50 g/ha) | Plant response rating, Bedstraw (bedstraw; Rate 200 g/ha, POSTEMERGENCE) | Plant response rating, Wild buckwheat (wild buckwheat; POSTEMERGENCE, Rate 50 g/ha) | Plant response rating (0 to 10 scale), Wild buckwheat (wild buckwheat; PREEMERGENCE, Rate 200 g/ha) | Plant response rating, Wild buckwheat (wild buckwheat; Rate 200 g/ha, POSTEMERGENCE) | Plant response rating, Cocklebur (cocklebur; POSTEMERGENCE, Rate 50 g/ha) | Plant response rating, Cocklebur (cocklebur; Rate 200 g/ha, POSTEMERGENCE)
2: Plant response rating, Cheatgrass (cheatgrass; POSTEMERGENCE, Rate 50 g/ha) | Plant response rating, Cheatgrass (cheatgrass; PREEMERGENCE, Rate 50 g/ha) | Plant response rating (0 to 10 scale), Cheatgrass (cheatgrass; PREEMERGENCE, Rate 200 g/ha) | Plant response rating, Barley (barley; POSTEMERGENCE, Rate 50 g/ha) | Plant response rating, Blackgrass (blackgrass; POSTEMERGENCE, Rate 50 g/ha) | Plant response rating (0 to 10 scale), Blackgrass (blackgrass; PREEMERGENCE, Rate 200 g/ha) | Plant response rating (0 to 10 scale), Rice (rice; PREEMERGENCE, Rate 200 g/ha) | Plant response rating, Nutsedge (purple nutsedge; POSTEMERGENCE, Rate 50 g/ha) | Plant response rating, Nutsedge (purple nutsedge; Rate 200 g/ha, POSTEMERGENCE) | Plant response rating, Chickweed (chickweed; POSTEMERGENCE, Rate 50 g/ha) | Plant response rating, Wheat (wheat; Rate 200 g/ha, POSTEMERGENCE) | Plant response rating (0 to 10 scale), Cocklebur (cocklebur; PREEMERGENCE, Rate 200 g/ha)
9: Plant response rating, Sugar beet (sugar beet; PREEMERGENCE, Rate 50 g/ha) | Plant response rating, Morningglory (morningglory; POSTEMERGENCE, Rate 50 g/ha) | Plant response rating, Lambsquarter (lambsquarters; POSTEMERGENCE, Rate 50 g/ha)
6: Plant response rating (0 to 10 scale), Velvetleaf (velvetleaf; PREEMERGENCE, Rate 200 g/ha) | Plant response rating, Soybean (soybean; POSTEMERGENCE, Rate 50 g/ha)
7: Plant response rating, Barnyardgrass (barnyardgrass; Rate 200 g/ha, POSTEMERGENCE) | Plant response rating, Rape (rape; POSTEMERGENCE, Rate 50 g/ha)
4: Plant response rating, Sorghum (sorghum; POSTEMERGENCE, Rate 50 g/ha) | Plant response rating, Sorghum (sorghum; Rate 200 g/ha, POSTEMERGENCE) | Plant response rating, Rice (rice; POSTEMERGENCE, Rate 50 g/ha)
